Assay results as given in US20110071169A1, “Preparation of polymorphic form of lapatinib ditosylate” (MAI DE LTD, priority 2009, published 2011).

Columns and labels:
[1] = Stability study of bulk material (stability-indicating HPLC, polymorphic form); details: elevated temperature and humidity (40° C./75%)
Procedure: The stability of Form A or Form B of lapatinib ditosylate bulk material and tablets is assessed by storing samples for up to 12 weeks at 25° C./60% RH or up to 5 weeks at 40° C./75% RH. Changes are monitored using a stability-indicating HPLC method. Results were calculated by normalized peak area (npa). Degradants are identified by comparison of their relative retention times against impurity standards.

[2] = Thermal phase stability on heating; format: physicochemical; details: heating of the crystalline form
[3] = Solubility in solvent mixtures; format: physicochemical
Procedure: The use of a relatively concentrated solution, e.g. about 5 mg/mL or above 5 mg/mL therefore is preferred.
In a preferred aspect, Form A of lapatinib ditosylate may be prepared by slurring starting material, crude or pure lapatinib ditosylate, anhydrate or solvate, which can be obtained according to the procedures described in U.S. Pat. No. 7,157,466 (or WO02/02552) with an organic solvent or a mixture of two or more organic solvents under heat. The lapatinib ditosylate is soluble in a mixture of water and THF, but not soluble in non-polar organic solvents. The preferred organic solvent is tetrahydrofuran. The concentration of lapatinib ditosylate within the solution may range from about 0.1% by weight to the saturation point. This concentration will, of course, vary depending upon the temperature at which the co-solvent solution is held, with warmer temperatures generally allowing for the preparation of more concentrated solutions of lapatinib ditosylate. Preferably, the concentration (w/w %) of lapatinib ditosylate starting material in solution is about 0.5-15%, preferably about 1-10%, more preferably about 1.5-5%. The volume ratio of tetrahydrofuran to water is about 50-95:50-5, preferably about 70-95:30-5, more preferably about 80-95:20-5, most preferably about 85:15. Water is then added into the above suspension, and the mixture is heated, suitably to a temperature in the range of from about 45° C. to 85° C., such as about 50° C. to 75° C., for example about 65-70° C. until all solid materials are dissolved. The clear and hot solution is allowed to cool down to ambient temperature, and the cooled solution is kept at ambient temperature for crystallization. The crystal Form A of lapatinib ditosylate is formed over a period of 1 hour to 4 days, and the crystal Form A is recovered from the solvent by filtration. The obtained crystal From A can be dried under a vacuum oven at about 20° C.-60° C., preferably at about 25° C.-50° C., more preferably at about 25° C.-35° C., and most preferably at […] for about 10-40 hours to remove the solvent residues.
In a preferred aspect, Form B of lapatinib ditosylate may be prepared by slurring starting material, crude or pure lapatinib ditosylate, anhydrate or solvate, which can be obtained according to the procedures described in U.S. Pat. No. 7,157,466 (or WO02/02552) with an organic solvent or a mixture of two or more organic solvents under heat. The lapatinib ditosylate is soluble in a mixture of water and THF, but not soluble in non-polar solvent. The preferred organic solvent is tetrahydrofuran. The concentration of lapatinib ditosylate within the solution may range from about 0.1% by weight to the saturation point. […]

Row | time for which polymorph (phase) and chemical stability was demonstrated [1] | heating temperature up to which no phase transformation occurs [2] | solubility (in words) ([3]; mixture of water and THF) | solubility (in words) ([3]; mixture of water and methanol or ethanol) | concentration of complete dissolution ([3]; mixture of water and methanol or ethanol, room temperature) [µg/mL] | solubility (in words) ([3]; non-polar organic solvents) | Structure (SMILES)
1 | over 5 weeks | up to 40 °C |  |  |  |  | CS(=O)(=O)CCNCc1ccc(-c2ccc3ncnc(Nc4ccc(OCc5cccc(F)c5)c(Cl)c4)c3c2)o1.Cc1ccc(S(=O)(=O)O)cc1 [Form A, hydrate ditosylate salt of N-[3-chloro-4-[(3-fluorophenyl)methoxy]phenyl]-6-[5-[[[2-(methylsulfonyl)ethyl]amino]methyl]-2-furanyl]-4-Quinazolinamine]
2 |  | up to 45 °C |  |  |  |  | CS(=O)(=O)CCNCc1ccc(-c2ccc3ncnc(Nc4ccc(OCc5cccc(F)c5)c(Cl)c4)c3c2)o1.Cc1ccc(S(=O)(=O)O)cc1.Cc1ccc(S(=O)(=O)O)cc1 [Form B, ditosylate salt of N-[3-chloro-4-[(3-fluorophenyl)methoxy]phenyl]-6-[5-[[[2-(methylsulfonyl)ethyl]amino]methyl]-2-furanyl]-4-Quinazolinamine]
3 |  |  | soluble | moderately soluble | ≥ 5000 | not soluble | CS(=O)(=O)CCNCc1ccc(-c2ccc3ncnc(Nc4ccc(OCc5cccc(F)c5)c(Cl)c4)c3c2)o1.Cc1ccc(S(=O)(=O)O)cc1 [lapatinib ditosylate, N-[3-chloro-4-[(3-fluorophenyl)methoxy]phenyl]-6-[5-[[[2-(methylsulfonyl)ethyl]amino]methyl]-2-furanyl]-4-Quinazolinamine, bis(4-methylbenzenesulfonate)]
